According to patent US20210198284A1, “GOLD COMPOSITIONS AND METHODS OF USE THEREOF” (THE UNIVERSITY OF MASSACHUSETTS, priority 2018, published 2021):

What was measured:
[1] = Log P determination (n-octanol/water, FAAS); details: n-octanol/water, gold by FAAS; for logP: Log P
Description: Log P Determination: Calibration curves. Milli-Q Water (150 mL) was added to n-octanol (150 mL), and the mixture was stirred for 3 days to allow both phases to reach saturation. The gold standard solution (1000 ppm Au in hydrochloric acid, Fisher Scientific) was diluted to 1, 2, 3, 4 and 5 ppm with n-octanol-saturated water, and the absorbance of the resulting solutions was measured by flame atomic absorption spectroscopy (FAAS, Agilent Technology 200 Series AA, equipped with a gold HC Lamp-Au coded). The absorbance data were plotted against Au concentration, and the resulting calibration curve was used for determining the concentration of the analogs in the aqueous phase.
To construct the standard calibration curve of the Au concentration in the n-octanol phase, compound 27 was used. The Au concentration in compound 27 was first calibrated against the aqueous gold standard. For this, 0.440 mg of compound 27 was weighed on a Sartorius MC5 microbalance, and then added to 22 mL of n-octanol-saturated water. […] For this, solutions of varying concentrations (0.99, 2.47, 4.94, 5.93, 9.88 ppm) of compound 27 in water-saturated n-octanol were prepared. The absorbance was measured by FAAS, and the data were plotted against the Au concentration to provide a second calibration curve, which was used for determining the Au concentration of the analogs in the n-octanol phase.
Determination of Au concentrations: Method 1. 0.5 to 1 mg of compound was weighed into a 2-mL Eppendorf tube containing 2 mL of n-octanol-saturated water. After shaking for about 4 h, the solution was centrifuged at 6000 rpm for 3 min. 1 mL of the supernatant was transferred to a new tube containing 1 mL of water-saturated n-octanol, and the mixture was shaken for 1 h. After centrifugation at 6000 rpm for 5 min, the two layers were collected and the gold concentration in each layer was determined by FAAS by comparing the absorbance to the first and second calibration curves.
Determination of Au concentrations: Method 2. […] For Method 2, 0.6 to 1 mg of compound was weighed into a 2-mL Eppendorf tube containing 1 mL of n-octanol-saturated water and 1 mL of water-saturated n-octanol. After shaking for 3-4 h, the mixture was centrifuged, and all liquid was transferred to a 15-mL tube. The liquid was then diluted with 2 mL of n-octanol-saturated saturated water and 2 mL of water-saturated n-octanol, and the mixture was shaken for another hour. After centrifugation at 6000 rpm for 5 min, the two layers were collected and the gold concentration in each layer was determined by FAAS by comparing the absorbance to the first and second calibration curves.
Log P was calculated as follows: log P=log[compound]oct/[compound]water

[2] = test system: E. faecalis ATCC 700221; experiment: Antibacterial assay, MIC/MBC by broth microdilution (CLSI); assay type: cell-based; details: repeated twice, a/b = both values
Description: (§1) Antibacterial assay. The minimum inhibitory concentrations (MICs) and the minimum bactericidal concentrations (MBCs) were determined by the broth microdilution method as described in the CLSI (The Clinical & Laboratory Standards Institute) guidelines (Performance standards for antimicrobial susceptibility testing: Clinical and Laboratory Standards Institute (CLSI), Twenty-Fifth informational supplement. Document M100-S25: […]; Vol. 35). All bacterial strains were cultured in cation-adjusted Muller Hinton broth (CAMHB) up to log-phase and then diluted to give a concentration of 7.5×10^5 CFU/mL. The gold complexes were dissolved in DMSO or water as stock solutions, which were then serially diluted two-fold in a 96-well plate. Aliquots (100 μL) of the dilutions were mixed with equal volumes of the bacterium suspension in a 96 well plate (in triplicates). The plates were incubated at 37° C. for 18 h without shaking. Negative and positive controls were included in the same well plate with wells having the culture medium only and bacteria solution only, respectively. The sample concentration that gave inhibition values above 90% were determined as MICs as calculated from absorbance values at 600 nm (OD600) obtained using a Tecan SPARK IOM plate reader. To determine minimum bactericidal concentrations (MBCs), agar plates were treated with 5 μL sample solutions from each well, and then incubated at 37° C. for 18 h without shaking. The sample concentration that gave no colony formed on agar plates were determined as MBCs.
(§2) Selection of bacteria. The ESKAPE pathogens were chosen as they are responsible for the majority of nosocomial infections and also as they provide a good scope of strains including both Gram-negative and Gram-positive species. A. baumannii NCTC 13420 was originally identified in 24 hospitals in the UK during 2000-2003, which produced OXA-51-like β-lactamases, and was highly resistant to ampicillin, piperacillin, piperacillin/tazobactam, ceftazidime, cefotaxime, gentamicin and ciprofloxacin. P. aeruginosa NCTC13437 produces VIM-10 metallo-carbapenemase and VEB-1 (Vietnamese extended-spectrum beta-lactamase). Wild-type strain E. cloacae NCTC 13405 (originally named E. cloacae 684) was isolated from patients at the London Hospital during 1982-1983. This strain has inducible AmpC β-lactamase and is resistant to ampicillin/amoxicillin and cefoxitin. K. pneumoniae ATCC 700603 was isolated from the urine of a hospitalized patient in Richmond, Va. in 1994, and it produces SHV-18 extended spectrum beta-lactamase (ESBL). JE2 (USA300) is a methicillin-resistant S. aureus (MRSA) strain, also resistant to beta-lactams, ciprofloxacin, tetracycline, macrolides (erythromycin), lincosamides (clindamycin), streptogramin B, and mupirocin. E. faecium ATCC 700221, a positive fecal VRE (vancomycin-resistant enterococcus) isolate, is resistant to several antibiotics including vancomycin and teicoplanin. The quality control strain, Gram-negative E. coli ATCC 25922, was included in all assays and validated with ciprofloxacin and […].

[3] = test system: S. aureus JE2 (USA300); experiment: as above; assay type: cell-based; details: for MIC values in words: S. aureus
Description: as §1, §2

[4] = test system: E. coli ATCC 25922; experiment: as above; assay type: cell-based; details: repeated twice, a/b = both values
Description: as §1, §2

[5] = test system: P. aeruginosa NCTC 13437; experiment: as above; assay type: cell-based; details: P. aeruginosa
Description: as §1, §2

[6] = test system: E. cloacae NCTC 13405; experiment: as above; assay type: cell-based; details: for activity in words: E. cloacae
Description: as §1, §2

[7] = test system: A. baumannii NCTC 13420; experiment: as above; assay type: cell-based; details: A. baumannii NCTC 13420; repeated twice, a/b = both values
Description: as §1, §2

[8] = test system: K. pneumoniae ATCC 700603; experiment: as above; assay type: cell-based; details: K. pneumoniae ATCC 700603; repeated twice, a/b = both values
Description: as §1, §2

With `CCCC[P+](CCCC)(CCCC)[Au-][S][C@@H]1OC(COC(C)=O)[C@@H](OC(C)=O)[C@H](OC(C)=O)C1OC(C)=O` (stereo partly drawn) [Compound 36, (2,3,4,6-Tetra-O-acetyl-1-thio-β-D-glucopyranosato)(tri-n-butylphosphine) gold(I)] the logP [1] was greater than 4.32 and the MIC [2] was 3/5.
With `CC[P+](CC)(CC)[Au-][S]CC(F)(F)F` [Compound 26, (2,2,2-Trifluoroethanethiolato)(triethylphosphine) gold(I)] the logP [1] was 2.08 and the “MIC values in words” value [3] was “nanomolar range”.
For `CC[P+](CC)(CC)[Au-][S]CC(=O)OC` [Compound 25, (Methyl mercaptoacetatato) (triethylphosphine) gold(I)], the logP [1] was 1.75 and the “MIC values in words” value [3] was “nanomolar range”.
For `CC(=O)OCC1O[C@@H]([S][Au-][P+](c2ccccc2)(c2ccccc2)c2ccccc2)C(OC(C)=O)[C@@H](OC(C)=O)[C@@H]1OC(C)=O` (stereo partly drawn) [Compound 37, (2,3,4,6-Tetra-O-acetyl-1-thio-β-D-glucopyranosato)(triphenylphosphine) gold(I)], the logP [1] was greater than 3.87 and the MIC ([3]; S. aureus JE2 (USA300), repeated twice, a/b = both values) was 1/2.
With `CC[P+](CC)(CC)[Au-][S][C@@H]1OC(CO)[C@@H](O)[C@H](O)C1NC(C)=O` (stereo partly drawn) [Compound 12, (2-Acetamido-2-deoxy-1-thio-β-D-glucopyranosato)(triethylphosphine) gold(I)] the logP [1] was -0.89 and the MIC [4] was 7/4.
With `CC[P+](CC)(CC)[Au-][S]CCO` [Compound 24, (2-Mercaptoethanolato)(triethylphosphine) gold(I)] the logP [1] was 1.19, the activity in words [5] was “showed activity” and the MIC ([6]; E. cloacae NCTC 13405, repeated twice, a/b = both values) was 5/10.
With `CC(=O)OCC1O[C@@H]([S][Au-][P+](C)(C)C)C(OC(C)=O)[C@@H](OC(C)=O)[C@@H]1OC(C)=O` (stereo partly drawn) [Compound 35, (2,3,4,6-Tetra-O-acetyl-1-thio-β-D-glucopyranosato)(trimethylphosphine) gold(I)] the logP [1] was 0.35, the MIC [7] was 6/13 and the activity in words [5] was “four-fold improvement in activity over 15”.
With `CC[P+](CC)(CC)[Au-][S]c1ccc(C(F)(F)F)cc1` [Compound 23, (4-(Trifluromethyl)benzenethiolato)(triethylphosphine) gold(I)] the logP [1] was greater than 3, the “Log P” value [1] was greater than 3.18 and the activity in words [6] was “completely diminished the activity”.
For `CC[P+](CC)(CC)[Au-][S]c1ccc([N+](=O)[O-])cc1` [Compound 22, (4-Nitrobenzenethiolato)(triethylphosphine) gold(I)], the logP [1] was greater than 3, the “Log P” value [1] was greater than 3.28 and the “MIC values in words” value [3] was “nanomolar range”. For the same compound, the activity in words [6] was “completely diminished the activity”.
With `CC(=O)OCC1O[C@@H]([S][Au-][P+](c2ccc(C(F)(F)F)cc2)(c2ccc(C(F)(F)F)cc2)c2ccc(C(F)(F)F)cc2)C(OC(C)=O)[C@@H](OC(C)=O)[C@@H]1OC(C)=O` (stereo partly drawn) [Compound 40, (2,3,4,6-Tetra-O-acetyl-1-thio-β-D-glucopyranosato)(tris(4-(trifluoromethyl)phenylphosphine)) gold(I)] the logP [1] was greater than 3.55.
For `CC[PH](CC)(CC)[Au][S][C@@H]1OC(COC(C)=O)[C@@H](OC(C)=O)[C@H](OC(C)=O)C1NC(C)=O` (stereo partly drawn) [Compound 3, (3,4,6-Tri-O-acetyl-2-N-acetyl-1-thio-β-D-glucopyranosato) (triethylphosphine) gold (1)], the logP [1] was 0.26.
With `Fc1ccc([P+]([Au-][Cl])(c2ccc(F)cc2)c2ccc(F)cc2)cc1` [Compound 33, (Tris(4-fluorphenyl)phosphine) gold chloride] the logP [1] was greater than 4.04 and the MIC [2] was 2/4.
For `CC[P+](CC)(CC)[Au-][S]c1ccc(SCC(=O)NC2[C@H](OC(C)=O)OC(COC(C)=O)[C@@H](OC(C)=O)[C@@H]2OC(C)=O)cc1` (stereo partly drawn) [Compound 8], the logP [1] was -0.36 and the MIC [7] was 76/19.
For `C[P+](C)(C)[Au-][Cl]` [Compound 28, (Trimethylphosphine) gold chloride], the logP [1] was 0.16, the MIC [7] was 7/13 and the activity in words [5] was “showed activity”. The MIC [8] was 7/13.
